Tests used:
Type in all cases: in vivo
ICR mice [1] = experiment: Anti-epilepsy activity, MES test, mouse
Experimental: (§1) In the MES test (Ref., G. Villetti et al. Neuropharmacology 40 (2001) 866-878), an electrical stimulus (mice: 50 mA, 60 Hz, 0.2 sec, and rats: 150 mA, 60 Hz, 0.2 sec in the test animal) supplied by an 11A Shocker (IITC Life Science Company) was delivered through corneal electrodes. All mice or rats assigned to any electroshock at peak time were treated with each test compound sample which was dissolved in 30% PEG 400 or 20% tween 80 prepared by saline solvent applied orally before the test. […] Three doses of the test sample were administered orally to 9-18 animals (3-6 mice per dose) for evaluating the respective doses at which 50% of the animals were protected from seizure (ED50). The ED50 value (median effective dose) was calculated by Litchfield and Wicoxon log-probit method which is a dose-response relationship. Experimental animals, male ICR mice and male SD rats, were purchased from OrientBio, Samtako, or Nara Biotech, Korea, and housed in cages (4-5 mice or 3 rats per cage) for 4-5 days. The range of mice body weight was between 19 and 25 grams and range of rats body weight was between 100 and 130 grams.

ICR mice [2] = experiment: Anti-epilepsy activity, scPTZ test, mouse
From the text: In this experiment, each test compound sample was formulated as described in Biological Experimental Example I, and administered intraperitoneally to the test animals (mice; ICR or Rat; SD); Experimental animals, male ICR mice and male SD rats, were purchased from OrientBio or Nara biotech, Korea, and housed 4-5 mice per a cage for 4-5 days. The range of mice body weight was used between 19 and 26 grams and range of rats body weight was used between 100 and 130 grams. After Peak time (0.5, 1, 2 and 4 hr) from the administration, PTZ (Pentylenetetrazol) was administered subcutaneously in the concentration capable of inducing 97% intermittent convulsions (mice: 76-110 mg/kg·bw, 10 μl/g, or rats: 79-110 mg/kg·bw, 2 μl/g). If clonic seizure was not observed for at least 30 minutes in the PTZ administered animal, it can be considered that the test compound has anti-epilepsy activity. The median effective dose (ED50) is determined using 6 animals per a concentration (total three different concen-trations), and calculated by Litchfield and Wicoxon log-probit method which is a dose-response relationship.

SD rats = experiment: Anti-epilepsy activity, MES test, rat; settings: for ED50: Rattus norvegicus, po
Experimental: as §1

Sprague-Dawley rats [3] = experiment: Antiallodynic activity on Complete Freund's Adjuvant (CFA)-induced inflammatory pain model; settings: intraperitoneally
Experimental: Male, Sprague-Dawley rats (210-250 g, Nara Bio, Korea) were habituated for 1 week before CFA injection and allowed free access to food and water throughout the experimentation. Room temperature and humidity were maintained at 24±2 and 50±10%, respectively.
CFA-induced inflammatory pain was induced by the procedure of Nagakura et al. (2003) and Gregory P. et al. (2010) with minor modifications. CFA (sigma, USA) was injected in the right plantar with a 100 ul volume under gaseous anesthesia with isoflurane. Sham controls were injected with 100 ul of saline and preparation of the vehicles without compound in the vehicle control group. Tactile sensitivity (Mechanical allodynia) was evaluated using von Frey monofilaments before and after treatment, and the animals were included in the study only if the withdrawal threshold value was less than 4 g. One week after surgery, CFA-infused treatment animals (n=4-6), sham-operated animals (n=12), and vehicle control animals (n=17) were tested for tactile sensitivity with von Frey monofilaments 3 trials for each animal. All Animals were placed in a stainless steel mesh chamber and habituated for 30 min in the test box. The tactile sensitivity for ipsilateral hind paw was measured using the up-and-down method (Dixon, 1980) with seven von Frey monofilaments (0.4, 1, 2, 4, 6, 8, and 15 g) to 3 trials. Tactile sensitivity test was followed by Dixon's method (Dixon, 1980). The 50% paw withdrawal threshold for each paw was calculated using the following formula: [Xth] log=[vFr] log+ky where [vFr] is the force of the last von Frey used, k=0.2249 which is the average interval (in log units) between the von Frey monofilaments, and y is a value that depends upon the pattern of withdrawal responses (Dixon, 1980).
Antiallodynic effect of compound was evaluated at the dose of 10-60 mg/kg (n=4-6), intraperitoneally administrated in a volume of 5 ul/g bw in a vehicle of 30% (v/v) PEG or 20% (v/v) Tween 80. The test was performed peak time of efficacy (0.5 or 1 hr) after compound administration.
The relative values compared to the sham (% control) were calculated and shown in Table 4, which show an antiallodynic effect of Compound 1 on CFA-induced pain model in rats.

Sprague-Dawley rats [4] = experiment: Antiallodynic activity on Chung model (SNL, spinal nerve ligation); settings: orally; for SNL efficacy %: 30 mg/kg; for ED50: Rattus norvegicus, po, at peak time
From the text: Male Sprague-Dawley rats (100-130 g, Orient Bio, Korea) were habituated for 1 week before the experiment and allowed free access to food and water throughout the experimentation. Room temperature and humidity were maintained at 24±2 and 50±10%, respectively. The neuropathic surgery (SNL, Spinal nerve ligation) model was done as described in Kim and Chung (1992). Briefly, an animal was put under gaseous anesthesia with isoflurane. The left lumber spinal nerve L5 and L6 were isolated and tightly ligated with 6-0 silk thread. The wound muscle was closed with Catgut® chrom 3/0 thread and skin was closed with Dafilon 3/0 tread. Sham controls were prepared in the same manner with the spinal nerves exposed, but with no ligated L5 and L6 nerves. Preparation of the vehicle controls were identical to the group treated with compound, except for administration of vehicles without compound in the vehicle control group.
Tactile sensitivity (Mechanical allodynia) was evaluated using von Frey monofilaments before and after treatment, and animals were included in the study only if the withdrawal threshold value was less than 4 g. One week after surgery, SNL-operated animals, sham-operated animals and vehicle control animals were tested for tactile sensitivity with von Frey monofilaments 3 trials in each animal. All Animals were placed in a stainless steel mash chamber and habituated for 30 min in the test cage. The tactile sensitivity for the ipsilateral hind paw was measured using the up-and-down method (Dixon, 1980) with seven von Frey monofilaments (0.4, 1, 2, 4, 6, 8, and 15 g) in 3 trials. The tactile sensitivity test was followed by Dixon's method (Dixon, 1980). The 50% paw withdrawal threshold for each paw was calculated using the following formula: [Xth] log=[vFr] log+ky where [vFr] is the force of the last von Frey used, k=0.2249 which is the average interval (in log units) between the von Frey monofilaments, and y is a value that depends upon the pattern of withdrawal responses (Dixon, 1980).
All animals were fasted 18 h before the administration of the compounds. Antiallodynic effect of compounds were evaluated at the three dose, orally administrated in a volume of 5 ul/g, bw in a vehicle of 30% (v/v) PEG 400 or 20% (v/v) Tween 80. The test was performed at the peak time of efficacy after compound administration.
The relative values compared to the sham group (% control) were calculated and shown in Table 3, which show an antiallodynic effect of the test compounds on SNL model in rats.

[5] = po, read-out: MES test (po) efficacy %
[6] = Rattus norvegicus, ip, read-out: CFA-induced pain model efficacy %

Structure (SMILES)	MES test (po) Peak time (ICR mice [1])	MES test (po) Peak time (SD rats)	response vs control in vivo at 50 mg/kg (Sprague-Dawley rats [3]; [6])	CFA-induced pain model Peak Time (Sprague-Dawley rats [3])	SNL Peak Time (Sprague-Dawley rats [4])	SNL efficacy % (Sprague-Dawley rats [4])	further results
C[C@H](OS(N)(=O)=O)[C@@H](O)c1ccccc1Cl [Example 1, (1S, 2S)-1-(2-chlorophenyl)-1-hydroxypropan-2-yl sulfamate]	2 h						ED50 (ICR mice [1]; po): 46.9 mg/kg; scPTZ test (ip) Peak time (ICR mice [2]): 0.5 h; ED50 (ICR mice [2]; ip): 76.6 mg/kg
CC[C@H](OS(N)(=O)=O)[C@@H](O)c1ccccc1Cl [Example 11, (1S, 2S)-1-(2-chlorophenyl)-1-hydroxybutan-2-yl sulfamate]	2 h	2 h					MES test (po) efficacy % (SD rats; 24 mg/kg): 33.3%; responders at 50 mg/kg (ICR mice [1]; po, 50 mg/kg, read-out: MES test (po) efficacy %): 25%
COCO[C@H](c1ccccc1F)[C@@H](C)OS(N)(=O)=O [Example 73, (1R, 2R)-1-(2-fluorophenyl)-1-(methoxymethoxy)propan-2-yl sulfamate]	1 h	(4 h)	38.5%	0.5 h	1 h	30(31.3%)	ED50 (SD rats): 34.8 mg/kg; responders at 60 mg/kg (ICR mice [1]; [5]): 33.3%
CC(C)NS(=O)(=O)O[C@@H](C)[C@@H](O)c1ccccc1Cl [Example 37, (1S, 2S)-1-(2-chlorophenyl)-1-hydroxypropan-2-yl isopropylsulfamate]		2 h					MES test (po) efficacy % (SD rats; 10 mg/kg): 16.6%
C[C@@H](OS(N)(=O)=O)[C@H](O)c1ccc(Cl)cc1Cl [Example 4, (1R, 2R)-1-(2,4-dichlorophenyl)-1-hydroxypropan-2-yl sulfamate]		4 h					MES test (po) efficacy % (SD rats; 10 mg/kg): 33%; scPTZ test (ip) Peak time (ICR mice [2]): 2 h; scPTZ test (ip) efficacy % (ICR mice [2]; 100 mg/kg): 100(100%)
C[C@@H](OS(N)(=O)=O)[C@H](O)c1ccccc1F [Example 18, (1R, 2R)-1-(2-fluorophenyl)-1-hydroxypropan-2-yl sulfamate]	1 h	(2 h)	46.6%	0.5 h	0.5 h	30(48.2%)	ED50 (SD rats): 14.2 mg/kg; ED50 (ICR mice [1]; po): 62 mg/kg
C[C@@H](OS(N)(=O)=O)[C@H](O)c1ccccc1I [Example 20, (1R, 2R)-1-(2-iodophenyl)-1-hydroxypropan-2-yl sulfamate]	1 h	(2 h)	28.7%	0.5 h	1 h	30(58.7%)	ED50 (SD rats): 20.1 mg/kg; responders at 60 mg/kg (ICR mice [1]; [5]): 16.6%
CC[C@@H](OS(N)(=O)=O)[C@H](O)c1ccccc1Cl [Example 12, (1R, 2R)-1-(2-chlorophenyl)-1-hydroxybutan-2-yl sulfamate]		1 h	21.9%	0.5 h			MES test (po) efficacy % (SD rats; 100 mg/kg): 100%
C[C@H](OS(N)(=O)=O)[C@@H](O)c1ccccc1F [Example 17, (1S, 2S)-1-(2-fluorophenyl)-1-hydroxypropan-2-yl sulfamate]				0.5 h	1 h		ED50 (Sprague-Dawley rats [3]; Rattus norvegicus, ip, at peak time): 48.7 mg/kg; ED50 (Sprague-Dawley rats [4]): 46.9 mg/kg
C[C@H](OS(N)(=O)=O)[C@@H](O)c1ccccc1I [Example 19, (1S, 2S)-1-(2-iodophenyl)-1-hydroxypropan-2-yl sulfamate]	1 h			1 h	1 h		responders at 30 mg/kg (ICR mice [1]; po, 30 mg/kg, read-out: MES test (po) efficacy %): 66.6%; response vs control in vivo at 30 mg/kg (Sprague-Dawley rats [3]; Rattus norvegicus, ip, 30 mg/kg, read-out: CFA-induced pain model efficacy %): 24.3%; ED50 (Sprague-Dawley rats [4]): 44.6 mg/kg
CC[C@@H](OS(N)(=O)=O)[C@H](OCOC)c1ccccc1Cl [Example 71, (1R, 2R)-1-(2-chlorophenyl)-1-(methoxymethoxy)butan-2-yl sulfamate]			41.9%	0.5 h	0.5 h	30(31.9%)	
C[C@H](OS(N)(=O)=O)[C@@H](O)c1ccc(Cl)cc1Cl [Example 3, (1S, 2S)-1-(2,4-dichlorophenyl)-1-hydroxypropan-2-yl sulfamate]		4 h					MES test (po) efficacy % (SD rats; 20 mg/kg): 16.6%
COCO[C@@H](c1c(Cl)cccc1Cl)[C@H](C)OS(N)(=O)=O [Example 57, (1S, 2S)-1-(2,6-dichlorophenyl)-1-(methoxymethoxy)propan-2-yl sulfamate]					1 h	30(26.3%)	
COCO[C@H](c1ccccc1I)[C@@H](C)OS(N)(=O)=O [Example 75, (1R, 2R) 1-(2-iodophenyl)-1-(methoxymethoxy)propan-2-yl sulfamate]	1 h	(2 h)	28.1%	0.5 h	1 h	30(64.9%)	ED50 (SD rats): 4.2 mg/kg; responders at 60 mg/kg (ICR mice [1]; [5]): 33.3%

From patent US10351519B2, “Sulfamate derivative compounds, processes for preparing them and their uses” (BIO-PHARM SOLUTIONS CO., LTD., priority 2016, dated 2019)
